In patent publication US7259271B2, “Peripherally-selective inhibitors of dopamine-β-hydroxylase and method of their preparation” (Portela & C.A., S.A., priority 2002, dated 2007):

How the values were obtained:
[1] = prior art finding; cited from earlier work
human DβH = molecular target: T1, human DβH (Homo sapiens, UniProt P09172); test: DβH activity (β-hydroxylation of dopamine to noradrenaline) in SK-N-SH cells; assay type: cell-based; settings: for remaining activity at 5 µM: SK-N-SH, 0.75 h, read-out: DβH activity in SK-N-SH cells, Mean ± SEM; for IC50 values against human DβH activity (in words): concentration-dependent decrease in β-hydroxylation of dopamine; for IC50: read-out: IC50 for inhibition of DβH in SK-N-SH cells
T1 construct: SK-N-SH cells (ATCC HTB-11), a human neuroblastoma derived cell line, were used as a source of human DβH; host or cells: SK-N-SH cells
T1 sequence (P09172 1-617): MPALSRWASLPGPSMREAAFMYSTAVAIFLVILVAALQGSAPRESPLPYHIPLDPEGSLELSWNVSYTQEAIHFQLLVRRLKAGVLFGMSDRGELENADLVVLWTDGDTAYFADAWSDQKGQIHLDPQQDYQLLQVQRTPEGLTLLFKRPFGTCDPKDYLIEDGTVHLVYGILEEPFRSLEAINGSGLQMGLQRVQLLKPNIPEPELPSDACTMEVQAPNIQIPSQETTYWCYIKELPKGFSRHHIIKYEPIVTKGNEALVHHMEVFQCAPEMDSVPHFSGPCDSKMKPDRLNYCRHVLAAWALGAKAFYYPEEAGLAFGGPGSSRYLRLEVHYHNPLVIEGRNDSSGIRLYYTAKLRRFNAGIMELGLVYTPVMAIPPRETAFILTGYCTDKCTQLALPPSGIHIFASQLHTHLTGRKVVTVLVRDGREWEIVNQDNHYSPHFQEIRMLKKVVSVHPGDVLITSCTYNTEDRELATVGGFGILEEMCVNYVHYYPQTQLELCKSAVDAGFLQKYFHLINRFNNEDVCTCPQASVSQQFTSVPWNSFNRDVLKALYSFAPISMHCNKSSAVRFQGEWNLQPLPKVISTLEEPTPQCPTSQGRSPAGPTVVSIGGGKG
Description: SK-N-SH cells (ATCC HTB-11), a human neuroblastoma derived cell line, were used as a source of human DβH. SK-N-SH cells cultured in 24 well plates were preincubated for 20 min in a reaction medium containing 200 mM sodium acetate, 30 mM N-ethylmaleimide, 5 μM copper sulphate, 0.5 mg/ml catalase aqueous solution, 1 mM pargyline, 10 mM sodium fumarate and 20 mM ascorbic acid. […] During preincubation and incubation, the cells were continuously shaken and maintained at 37° C. The reaction was terminated by the addition of 0.2 M perchloric acid. The acidified samples were stored at 4° C. before injection into the high pressure liquid chromatograph for the assay of noradrenaline.

[2] = system: noradrenaline tissue levels; test: Noradrenaline tissue levels in heart and brain of mice after oral administration; assay type: in vivo, mouse; settings: for recovery of initial noradrenaline tissue levels: mouse heart, at 24 h; for recovery of initial noradrenaline tissue levels / Time of maximum effect (Tmax) for noradrenaline tissue reduction / duration of action in the heart: 100 mg/kg oral; for Time of maximum effect (Tmax) for noradrenaline tissue reduction / dose at which the maximal inhibitory effect was attained: mouse left ventricle; for dose at which the maximal inhibitory effect was attained / noradrenaline levels in left ventricle / noradrenaline tissue levels in the brain parietal cortex: 9 h after oral administration; for duration of action in the heart / noradrenaline levels in left ventricle / noradrenaline tissue levels in the brain parietal cortex: mouse; for duration of action in the heart: time course
Description: (§1) Male NMRI mice or Wistar rats were obtained from Harlan-lnterfauna (Spain) and were kept 10 and 5 per cage respectively, under controlled environmental conditions (12 h light/dark cycle and room temperature 22±1° C.). Food and tap water were allowed ad libitum and experimentation was performed during daylight hours.
(§2) At time =0 h, animals were administered with either test compounds at a given dose or vehicle (water) delivered orally via gavage. At 2, 6, 9, 12, 18 and 24 h post dose, the animals were sacrificed by decapitation and heart (left atrium and left ventricle) and brain (frontal and parietal cortex) were isolated, weighed and stored in a volume of 0.2 M perchloric acid for 12 h at 4° C. in the dark. Post incubation, the resulting supernatants were collected by centrifuge filtration of incubates ([…]/10 min/˜5000 rpm, 4° C.). Supernatants were stored frozen at −80° C. until analysis. Quantification of dopamine and noradrenaline in supernatants was performed by high pressure liquid chromatography with electrochemical detection.

[3] = system: noradrenaline tissue levels; test: Noradrenaline tissue levels in heart and brain of rats after oral administration; assay type: in vivo; settings: rat; for noradrenaline tissue levels in brain parietal cortex and brain frontal cortex: 9 h after oral administration; for dose dependence of effects upon noradrenaline / time of maximum effect upon noradrenaline: oral
Description: as §1, §2

remaining activity at 5 µM (human DβH) [%]	IC50 values against human DβH activity (in words) (human DβH)	IC50 (human DβH) [nM]	inhibition of DβH activity (in words) (human DβH; 5 μM, as listed in Table 1)	SMILES	crossing of the blood brain barrier (BBB) [1]	recovery of initial noradrenaline tissue levels [2] [%]	Time of maximum effect (Tmax) for noradrenaline tissue reduction [2] [h]	dose at which the maximal inhibitory effect was attained [2] [mg/kg]	duration of action in the heart [2]	noradrenaline levels in left ventricle [2]	noradrenaline tissue levels in the brain parietal cortex [2]	noradrenaline tissue levels in brain parietal cortex and brain frontal cortex [3]	dose dependence of effects upon noradrenaline [3]	time of maximum effect upon noradrenaline [3] [h]	inhibitory effects upon noradrenaline levels in left atrium and left ventricle ([3]; 100 mg/kg oral, 9 h)
0	low nM range	36		NCc1c[nH]c(=S)n1[C@H]1CCc2c(F)cc(F)cc2C1 [Compound 1, nepicastat, reference compound]	cross the blood brain barrier	50	9	100	long acting	dose-dependent manner	dose-dependent decrease	marked decrease	dependent on the dose administered	9	
3.3 ± 0.3	low nM range	105	markedly inhibit	Cl.NCCc1c[nH]c(=S)n1[C@H]1COc2c(F)cc(F)cc2C1 [Compound 4, (R)-5-(2-aminoethyl)-1-(6,8-difluorochroman-3-yl)-1,3-dihydroimidazole-2-thione hydrochloride]		50	9	100	long acting	dose-dependent manner	failed to affect	failed to affect	dependent on the dose administered	9	more pronounced than those elicited by 1
